{
  "source": "ChEMBL document CHEMBL3085731",
  "about": "“Novel water-soluble prodrugs of acyclovir cleavable by the dipeptidyl-peptidase IV (DPP IV/CD26) enzyme” (Eur J Med Chem, 2013)",
  "key": {"Human alphaherpesvirus 1 [1]": {"system": "Human alphaherpesvirus 1", "assay": "Antiviral activity against thymidine kinase-deficient ACV-resistant Herpes simplex virus 1 KOS infected in HEL cells assessed as inhibition of virus-induced cytopathicity", "format": "functional, organism-based", "conditions": "Human alphaherpesvirus 1, KOS; call rule not given here"}, "Human alphaherpesvirus 1 [2]": {"system": "Human alphaherpesvirus 1", "assay": "Antiviral activity against Herpes simplex virus 1 KOS infected in HEL cells assessed as inhibition of virus-induced cytopathicity", "format": "functional, organism-based", "conditions": "Human alphaherpesvirus 1, KOS"}, "Dipeptidyl peptidase 4 [3]": {"target": "T1, Dipeptidyl peptidase 4 (Homo sapiens, UniProt P27487)", "T1 sequence (P27487 whole entry)": "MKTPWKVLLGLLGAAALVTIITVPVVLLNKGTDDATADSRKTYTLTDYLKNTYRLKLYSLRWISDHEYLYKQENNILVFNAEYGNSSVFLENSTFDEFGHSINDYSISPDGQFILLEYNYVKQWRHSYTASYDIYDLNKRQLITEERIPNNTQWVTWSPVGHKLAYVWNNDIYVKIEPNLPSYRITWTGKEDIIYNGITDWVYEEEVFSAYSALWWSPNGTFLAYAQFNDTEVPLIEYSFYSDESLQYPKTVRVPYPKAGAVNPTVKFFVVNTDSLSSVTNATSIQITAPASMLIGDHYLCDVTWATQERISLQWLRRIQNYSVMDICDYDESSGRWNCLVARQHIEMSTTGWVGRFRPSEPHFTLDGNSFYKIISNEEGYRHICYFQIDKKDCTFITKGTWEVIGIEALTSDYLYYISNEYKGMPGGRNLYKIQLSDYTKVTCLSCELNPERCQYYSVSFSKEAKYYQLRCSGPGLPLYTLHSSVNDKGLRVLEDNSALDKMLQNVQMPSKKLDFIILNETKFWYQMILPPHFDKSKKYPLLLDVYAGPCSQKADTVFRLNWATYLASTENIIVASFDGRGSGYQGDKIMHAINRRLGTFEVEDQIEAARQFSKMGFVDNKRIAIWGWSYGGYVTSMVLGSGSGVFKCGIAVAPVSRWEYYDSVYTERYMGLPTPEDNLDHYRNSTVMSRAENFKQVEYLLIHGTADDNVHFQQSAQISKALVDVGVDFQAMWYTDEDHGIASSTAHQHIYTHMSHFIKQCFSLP", "assay": "Prodrug conversion assessed as human dipeptidyl peptidase 4-mediated Val-ACV formation at 50 uM after 24 hrs by HPLC analysis", "format": "ADME", "conditions": "isolated protein"}, "[4]": {"assay": "Solubility of the compound in deionized water at pH 5.5 after overnight incubation by HPLC analysis", "format": "physicochemical"}, "[5]": {"assay": "Prodrug conversion in PBS buffer assessed as ACV formation at 50 uM after 24 hrs by HPLC analysis", "format": "ADME"}, "[6]": {"assay": "Chemical stability of the compound in sodium phosphate buffer at pH 3.2 after 6 hrs", "format": "physicochemical", "conditions": "pH 3.2, 6 h"}, "Human alphaherpesvirus 2": {"system": "Human alphaherpesvirus 2", "assay": "Antiviral activity against Herpes simplex virus 2 G infected in HEL cells assessed as inhibition of virus-induced cytopathicity", "format": "functional, organism-based", "conditions": "Human alphaherpesvirus 2, strain G"}, "Dipeptidyl peptidase 4 [7]": {"target": "T1, Dipeptidyl peptidase 4", "assay": "Prodrug conversion assessed as dipeptidyl peptidase 4-mediated ACV formation in human serum at 50 uM after 24 hrs by HPLC analysis", "format": "ADME"}, "Dipeptidyl peptidase 4 [8]": {"target": "T1, Dipeptidyl peptidase 4", "assay": "Prodrug conversion assessed as dipeptidyl peptidase 4-mediated ACV formation in human serum at 50 uM after 1 hr by HPLC analysis", "format": "ADME"}, "[9]": {"assay": "Oral bioavailability in human", "format": "ADME, organism-based", "conditions": "in vivo"}, "[10]": {"assay": "Prodrug conversion in PBS buffer assessed as ACV formation at 50 uM after 2 hrs by HPLC analysis", "format": "ADME"}, "Dipeptidyl peptidase 4 [11]": {"target": "T1, Dipeptidyl peptidase 4", "assay": "Prodrug conversion assessed as dipeptidyl peptidase 4-mediated ACV formation in human serum at 50 uM after 2 hrs by HPLC analysis", "format": "ADME"}, "Dipeptidyl peptidase 4 [12]": {"target": "Dipeptidyl peptidase 4 (Bos taurus, UniProt P81425)", "sequence (P81425 whole entry)": "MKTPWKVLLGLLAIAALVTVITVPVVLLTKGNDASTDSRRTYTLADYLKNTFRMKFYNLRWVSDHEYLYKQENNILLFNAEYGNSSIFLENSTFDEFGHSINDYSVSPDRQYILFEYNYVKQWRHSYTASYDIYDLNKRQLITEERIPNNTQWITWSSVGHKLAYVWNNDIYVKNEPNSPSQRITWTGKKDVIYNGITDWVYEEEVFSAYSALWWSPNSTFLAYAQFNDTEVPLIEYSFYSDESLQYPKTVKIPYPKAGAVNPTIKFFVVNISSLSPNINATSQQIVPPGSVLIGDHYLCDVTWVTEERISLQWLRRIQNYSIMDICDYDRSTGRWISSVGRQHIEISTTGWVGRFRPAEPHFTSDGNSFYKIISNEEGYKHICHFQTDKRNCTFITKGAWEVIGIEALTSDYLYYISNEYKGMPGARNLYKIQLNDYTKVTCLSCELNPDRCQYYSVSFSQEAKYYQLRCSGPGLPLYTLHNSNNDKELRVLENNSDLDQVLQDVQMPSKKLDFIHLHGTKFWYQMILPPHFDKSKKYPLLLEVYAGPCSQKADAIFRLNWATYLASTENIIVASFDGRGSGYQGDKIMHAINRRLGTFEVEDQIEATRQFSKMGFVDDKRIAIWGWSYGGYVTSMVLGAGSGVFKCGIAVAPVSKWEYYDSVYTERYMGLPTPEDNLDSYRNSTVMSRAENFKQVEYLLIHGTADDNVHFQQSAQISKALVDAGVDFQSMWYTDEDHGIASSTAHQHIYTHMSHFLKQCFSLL", "assay": "Prodrug conversion assessed as dipeptidyl peptidase 4-mediated ACV formation in bovine serum at 50 uM after 2 hrs by HPLC analysis", "format": "ADME", "conditions": "cattle"}},
  "note": "Residues, ends and D or L forms follow the SMILES beside them. *: point of attachment. X1 = O=c1[nH]c(N*)nc2c1ncn2COCCO",
  "data": [
    {"smiles": "CC(C)[C@H](N)C(=O)N1CCC[C@H]1C(=O)N[C@H](C(=O)OCCOCn1cnc2c(=O)[nH]c(N)nc21)C(C)C", "values": [
      {"measurement": "EC50", "setting": "Human alphaherpesvirus 1 [1]", "value": 32, "unit": "µM"},
      {"measurement": "EC50", "setting": "Human alphaherpesvirus 1 [2]", "value": 0.6, "unit": "µM"},
      {"measurement": "Drug metabolism", "setting": "Dipeptidyl peptidase 4 [3]", "value": "Active"},
      {"measurement": "solubility", "setting": "[4]", "value": 12.2, "unit": "mg/mL"},
      {"measurement": "Drug metabolism", "setting": "[5]", "value": "Not Active"},
      {"measurement": "Stability", "setting": "[6]", "value": "Stable"},
      {"measurement": "EC50", "setting": "Human alphaherpesvirus 2", "value": 1.6, "unit": "µM"}
    ]},
    {"smiles": "CC(C)[C@H](N)C(=O)N1CCC[C@H]1C(=O)N[C@H](C(=O)N1CCC[C@H]1C(=O)Nc1nc2c(ncn2COCCO)c(=O)[nH]1)C(C)C", "note": "(H-VPVP-X1)", "values": [
      {"measurement": "EC50", "setting": "Human alphaherpesvirus 1 [1]", "value": 73, "unit": "µM"},
      {"measurement": "EC50", "setting": "Human alphaherpesvirus 1 [2]", "value": 1.8, "unit": "µM"},
      {"measurement": "solubility", "setting": "[4]", "value": 22.9, "unit": "mg/mL"},
      {"measurement": "Drug metabolism", "setting": "[5]", "value": "Active"},
      {"measurement": "Stability", "setting": "[6]", "value": "Stable"},
      {"measurement": "EC50", "setting": "Human alphaherpesvirus 2", "value": 4.9, "unit": "µM"},
      {"measurement": "Drug metabolism", "setting": "Dipeptidyl peptidase 4 [7]", "value": "Active"},
      {"measurement": "Drug metabolism", "setting": "Dipeptidyl peptidase 4 [8]", "value": "Active"}
    ]},
    {"smiles": "Nc1nc2c(ncn2COCCO)c(=O)[nH]1", "note": "[ACYCLOVIR]", "values": [
      {"measurement": "EC50", "setting": "Human alphaherpesvirus 1 [1]", "value": 18, "unit": "µM"},
      {"measurement": "solubility", "setting": "[4]", "value": 1.29, "unit": "mg/mL"},
      {"measurement": "bioavailability", "setting": "[9]", "value": 10, "unit": "%"},
      {"measurement": "EC50", "setting": "Human alphaherpesvirus 2", "value": 0.5, "unit": "µM"}
    ]},
    {"smiles": "CC(C)[C@H](N)C(=O)OCCOCn1cnc2c(=O)[nH]c(N)nc21", "note": "[VALACYCLOVIR]", "values": [
      {"measurement": "Drug metabolism", "setting": "[10]", "value": "Active"},
      {"measurement": "Drug metabolism", "setting": "Dipeptidyl peptidase 4 [11]", "value": "Active"},
      {"measurement": "Drug metabolism", "setting": "Dipeptidyl peptidase 4 [12]", "value": "Active"}
    ]}
  ]
}
